Assays:
[1] = system: HBE4 cells; experiment: Cell cycle analysis by flow cytometry, HBE4 cells synchronized at S phase; assay type: cell-based, human; conditions: measured every 2 hrs, vs Scr
Description: (§1) We then wanted to determine whether piR-L-163 (SEQ ID NO:282) plays a functional role in human bronchial epithelial cells. We treated HBE4 cells as well as primary normal human bronchial epithelial (NHBE) cells with piR-L-163 complementary DNA oligonucleotides (Ant-163) (SEQ ID NO:496) or RNA oligonucleotides (Ant-163R) (SEQ ID NO:497) in the experiment. […] Cell cycle distributions were measured every 2 hrs.
Cell cycle distribution was analyzed by Flow Cytometry (Becton-Dickinson). Cells were synchronized in growth factor-free Keratinocyte-SFM with 2 mM Thymidine (Catalog No. T1895, Sigma-Aldrich) for 24 hrs. Transfection is performed using Lipofectamine™ RNAiMAX (Invitrogen) according to its manual, and the final concentration of annealed oligo RNAs is 400 nM. Four hour after transfection, culture medium was replaced by complete Keratinocyte-SFM supplemented with L-Glutamine, prequalified human recombinant EGF 1-53 and BPE. Cells were harvested at different time points, washed in phosphate-buffer saline (PBS), fixed with ice-cold 70% ethanol, and strained in PI/RNase solution (BD Pharmigen). The samples were analyzed on a FACScan flow cytometer in combination with BD lysis software (Becton-Dickinson).

[2] = system: HBE4 cells as well as primary normal human bronchial epithelial (NHBE) cells; experiment: Cell viability and cell growth curve assay (MTT, trypan blue); assay type: cell-based; conditions: compared with cells treated with scrambled DNA oligonucleotides (Scr)
Description: as §1, with “hrs. […]” for “hrs.”
Cell viability and cell growth curve assay were determined by MTT assay and trypan blue exclusion assay, respectively as described previously (Kirino, Y. & Mourelatos, Z. Mouse Piwi-interacting RNAs are 2′-O-methylated at their 3′ termini Nat Struct Mol Biol. 14, 347-348 (2007)). BrieflySpecifically, MTT (5 mg/ml) was added into cells and incubated at culture condition for 3 hours, removed the medium carefully and dissolved formazan in DMSO, assay was used to assess the surviving cells and OD values were measured using Microplate Reader Manager (Bio Rad) at wavelengths of 570/690 nm. […] Unstained viable cells were counted in hemocytometer chamber under microscope. […]

[3] = system: p-ERM; experiment: p-ERM protein levels in HBE4 cells (Western blot); assay type: cell-based, human; conditions: following treatment
[4] = biological target: T1, wild-type human moesin (Moesin-WT) (Homo sapiens, UniProt P26038); experiment: IP/RT-PCR binding to introduced moesin in H522 cells; conditions: H522 cells co-transfected
T1 construct: expressed in transfected cells; host or cells: H522 cells, pcDNA3.1(+) plasmid
T1 sequence (P26038 whole entry): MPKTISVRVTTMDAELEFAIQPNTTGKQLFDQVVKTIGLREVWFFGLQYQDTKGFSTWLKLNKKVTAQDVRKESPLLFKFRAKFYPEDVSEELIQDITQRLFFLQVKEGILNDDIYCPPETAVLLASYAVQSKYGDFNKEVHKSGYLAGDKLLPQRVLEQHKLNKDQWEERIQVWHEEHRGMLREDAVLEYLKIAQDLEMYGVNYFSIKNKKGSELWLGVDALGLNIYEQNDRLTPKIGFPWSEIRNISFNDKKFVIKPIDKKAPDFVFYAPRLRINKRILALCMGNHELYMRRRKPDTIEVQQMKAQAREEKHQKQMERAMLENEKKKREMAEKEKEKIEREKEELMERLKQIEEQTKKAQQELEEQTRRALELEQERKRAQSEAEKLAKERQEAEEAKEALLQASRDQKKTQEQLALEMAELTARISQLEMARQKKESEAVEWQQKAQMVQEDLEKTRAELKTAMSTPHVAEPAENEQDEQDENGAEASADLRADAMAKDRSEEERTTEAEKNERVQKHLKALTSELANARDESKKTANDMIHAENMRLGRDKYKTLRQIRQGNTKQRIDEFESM
Excerpt: (§2) To determine potential element of ERM proteins critical for their binding with piR-L-163, we analyzed human and Drosophila moesin sequences using BindN (http://bioinfo.ggc.org/bindn/) and identified RRRKPDT (SEQ ID NO:488) at position 293-299 as a candidate RNA binding element (FIG. 12a, b). We then constructed plasmids containing either wild-type human moesin (Moesin-WT) or a mutant form of moesin with RRRKPDT (SEQ ID NO:488) deletion (Moesin-DM). Both plasmids produce high levels of moesin proteins in the transfected cells (FIG. 5d). We used two cell lines (H522 and HBE4) to test if this element contributes to the binding between moesin and piR-L-163. H522 cells expressed extremely low level of endogenous p-ERM (FIG. 5c) and very low level of piR-L-163 (FIG. 11a). H522 cells transfected with piR-L-163 were simultaneously transfected with either Moesin-WT or Moesin-DM to determine the potential binding ability of the introduced moesin proteins with piR-L-163. We also used the non-functional piR-L-163M1 mutant to replace piR-L-163 in the experiment as a negative control. […] We next transfected HBE4 cells which expressed both p-ERM and piR-L-163 (FIG. 4e and FIG. 11a) with either Moesin-WT or Moesin-DM after knocked down the endogenous moesin in the cells. […]

[5] = biological target: T2, mutant form of moesin with RRRKPDT deletion (Moesin-DM) (Homo sapiens, UniProt P26038, DEL293-299); experiment: as above; conditions: H522 cells co-transfected
T2 construct: expressed in transfected cells; host or cells: H522 cells, pcDNA3.1(+) plasmid
T2 sequence (P26038 with tags, fused parts or gaps DEL293-299): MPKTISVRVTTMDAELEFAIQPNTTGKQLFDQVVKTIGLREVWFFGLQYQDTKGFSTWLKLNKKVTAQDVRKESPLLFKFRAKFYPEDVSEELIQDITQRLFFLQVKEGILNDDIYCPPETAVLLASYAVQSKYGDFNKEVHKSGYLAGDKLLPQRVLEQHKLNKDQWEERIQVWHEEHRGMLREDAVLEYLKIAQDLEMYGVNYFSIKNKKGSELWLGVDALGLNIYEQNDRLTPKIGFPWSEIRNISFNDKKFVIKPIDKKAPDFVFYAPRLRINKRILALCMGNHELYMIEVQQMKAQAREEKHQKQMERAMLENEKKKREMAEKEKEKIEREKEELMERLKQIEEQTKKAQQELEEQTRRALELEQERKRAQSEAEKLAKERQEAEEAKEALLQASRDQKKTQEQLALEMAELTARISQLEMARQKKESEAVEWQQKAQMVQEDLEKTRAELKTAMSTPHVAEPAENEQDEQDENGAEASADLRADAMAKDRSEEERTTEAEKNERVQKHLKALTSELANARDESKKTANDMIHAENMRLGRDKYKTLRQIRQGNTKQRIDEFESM
Excerpt: as §2

With “Ant-163: DNA sequence antisense to piR-L-163, SEQ ID NO:496, 5′-GGTCAGAGAATCAAAGTAACATCATGATAT-3′ (DNA, backbone and methylation of C not given here)” the cell cycle distribution [1] was “accelerated DNA synthesis and G2-M accumulation”, the “cell viability and proliferation” value [2] was “enhanced cell viability and proliferation” and the p-ERM protein levels [3] was “not significantly changed”.
With “piR-L-163: sprRNA, SEQ ID NO:282; piRNA-L aligned to intron 10 of LAMC2; AUAUCAUGAUGUUACUUUGAUUCUCUGACC with 3′ 2′-O-methylation (listed as RNA, chemistry not fully specified; listed as Homo sapiens)” the “binding to Moesin-WT” value [4] was “bound to piR-L-163” and the “binding to Moesin-DM” value [5] was “failed to bind”.

Source: patent publication US10889812B2, “Short non-coding protein regulatory RNAs (sprRNAs) and methods of use” (University of Maryland, Baltimore, priority 2014, dated 2021)
